From patent US4073938A, “19,20-Bis-nor-prostenoic acids as hypolipemic compounds” (Istituto Biochimico Italiano di Loredana Lorenzini S.a.s., priority 1974, dated 1978)
Structures can show the parent of a compound that is named as a salt.

Experiments:
Glycemia test at fast = type: in vivo, Male Sprague-Dawley rats; conditions: 200 mg/kg endoperitoneal, 2 hours before the test
Protocol: b. Glycemia test at fast: mg/100 ml blood in toto ± E.S.
Glycemia test at fast (Repetition): mg/100 ml blood in toto ± E.S.
(§1) Treatment with the dose of 200 mg/kg endoperitoneal, 2 hours before the test.
Male Sprague-Dawley rats 150 grs.

mouse = test: LD50 by mouth in the mouse; type: in vivo
Protocol: (§2) a. LD50 by mouth in the mouse about 3000 mg/kg
(§3) 25 gr of XVI are dissolved in 400 ml of water with NaOH 15% to pH 9, filtered and lyophilized : 24 gr of sodium salt of XVI as a white solid are obtained, humidity (K. Fisher) 2.08%, no U.V. absorption, equivalent weight found 301.7, I.R. bands at 3400, 1765, 1565, 1460, 1420, 1378 cm^-1.
(§4) After 20 hours at 20°, the solvent is evaporated in vacuo, the residue is dissolved in 1300 ml of water treated with 120 ml of acetic acid, extracted with chloroform. After solvent evaporation, 65.1 gr of the compound XVIII are obtained, as an oil, I.R. bands at 3420, 3100, 1710 cm^-1. 35 gr of the compound XVIII are dissolved in 600 ml of water with NaOH to pH 9. The solution is filtered and lyophilized: 35.5 gr of sodium salt of 9-hydroxy-19,20-bis-nor-prostanoic acid are obtained, as white solid, humidity (K.Fisher) 1.73%, no U.V. absorption, equivalent weight found 320, I.R. bands at 3400, 3300, 1565, 1460, 1390 cm^-1, LD50 by mouth in mice about 3000 mg/kg.

[1] = LD50 by mouth in the mouse; type: in vivo; conditions: in vivo, po
Protocol: as §2, §3, §4

ulcer induced by aspirin = test: Anti-ulcerous activity, ulcer from aspirin (9-hydroxy sodium salt); type: in vivo, Female rats of the Wistar stock; conditions: for Ulcer scale (x ± Sx): controls 18.67 ± 3.11
Protocol: (§5) Also in this case the anti-ulcerous activity is tested on an ulcer induced by aspirin and by phenylbutazone. In both cases lesions of various sizes are formed in the glandular section of the stomach.
Female rats of the Wistar stock weighing 150-175 g are used. 24 hours before the start of the test the animals are made to fast, while they are allowed water at will.
Each test group consists of 12 animals. The aspirin is administered orally as a suspension (45 mg/ml of 0.5% carboxymethyl cellulose suspension, 1 ml per animal). The substance in question is administered 10 minutes before the administration of aspirin, and 21/2 hours after, each time in doses of […] of 100 mg/kg × 10 ml of distilled water. The animals are killed 5 hours after the administration of aspirin, the stomachs are extracted and with a stereomicroscope the number and size of the lesions is evaluated.

[2] = system: ulcer induced by phenylbutazone; test: Anti-ulcerous activity, ulcer from phenylbutazone (9-hydroxy sodium salt); type: in vivo, Female rats of the Wistar stock
Protocol: as §5
Female rats of the Wistar stock weighing 170 ± 180 g are again involved. The animals are held in constant ambient conditions for at least 2 weeks before the start of the test. 24 hours before the start of the test the animals are made to fast, while they are allowed water at will.
Each test group consists of 10 animals. The substance in question is administered a first time 15 minutes before administration of phenylbutazone (200 mg/kg × 1 ml in 0.5% tragacanth gum solution orally), and a second time 21/2 hours after. The doses of the substance in question amount to 2.5, 10, 50, 100, 200 and respectively 400 mg/kg × 2 ml of 0.5% tragacanth gum solution, orally.
5 hours after the administration of phenylbutazone the animals are killed, the stomachs are extracted, fixed and with the aid of a stereomicroscope magnifying 8 times a point count evaluation is carried out. The lesions of the gastric mucosa are expressed in % of the stomach surface.

[3] = system: smooth musculature (trachea of guinea-pig, fundal end stomach of rat, uterus of rat, portal vein of rat); test: General pharmacology: prostaglandino-similar activity on smooth muscle preparations; conditions: 100 μg/ml
Protocol: The compound C83 has been tested pharmacologically in order to show a probable prostaglandino-similar activity.
The compound C83 has been studied on the above parameters:
1. Trachea of guinea-pig.
2. Strips of fundal end stomach of rat.
5. Cardiovascular effects.
This compound has been tested at the concentration of 100 μg/ml in all preparations above mentioned.

[4] = Deepness and rapidity test (untitled table 6); type: in vivo, Male Sprague-Dawley rats; conditions: 200 mg/kg endoperitoneal; for Rapidity ± E.S.: controls 3.4 ± 0.3; for Deepness (mm ± E.S.): controls 74.9 ± 6.2
Protocol: | Treatment with the dose of 200 mg/kg endoperitoneal, one or two hours | before sacrifice. Male Sprague-Dawley rats with an average weight of 150 | gr.

[5] = Triglyceridemia and cholesterolemia in rats given alcohol 10%; type: in vivo, Male Sprague-Dawley rats; conditions: 1 week endoperitoneal once daily (CPIB, BBA 200 mg/kg; C83 50 mg/kg)
Protocol: | Treatment for 1 week CPIB - BBA - 200 mg/kg endoperitoneal; C83 | 50mg/kg endoperitoneal; only one daily administration. | Male Sprague-Dawley rats 150 gr. | Groups of 6 rats.

[6] = Coagulation test (Time of Quick, Time of Howel); type: in vivo, Male Sprague-Dawley rats; conditions: 200 mg/kg endoperitoneal, 2 hours before
Protocol: c. Coagulation test: minutes/10 ± E.S.
Coagulation test (Repetition): minutes/100 ± E.S.
as §1
Male Sprague-Dawley rate 150 gr.

[7] = Triglycerides and cholesterol in rats on Nath diet, endoperitoneal or by mouth; type: in vivo, male Sprague-Dawley rats; conditions: 1 week
Protocol: Treatment with 25 mg/kg/die for 1 week on male Sprague-Dawley rats of 150

For `CCCCCCC1CCC(O)C1CCCCCCC(=O)O` (stereo not drawn) [Compound C83, 9-hydroxy-19,20-bis-nor-prostanoic acid sodium salt], the “Glycemia at fast (± E.S.)” value (Glycemia test at fast; controls 63.8 ± 4.1, p < 0.001) was 99.3 ± 2.7 mg/100 ml blood in toto, the “Glycemia at fast (Repetition) (± E.S.)” value (Glycemia test at fast; repetition, controls 81.1 ± 3.5, p < 0.01) was 121.4 ± 9.8 mg/100 ml blood in toto and the LD50 (mouse) was “about 3000 mg/kg”. The LD50 [1] was about 3000 mg/kg, the “Ulcer scale (x ± Sx)” value (ulcer induced by aspirin; 2 × 10 mg/kg, p<0.001) was 4.83 ± 1.09 and the “Ulcer scale (x ± Sx)” value (ulcer induced by aspirin; 2 × 100 mg/kg, p<0.05) was 8.92 ± 1.91. The “mitigation of ulcerating effect of aspirin (in words)” value (ulcer induced by aspirin; both doses) was “considerably mitigates the ulcerating effect of aspirin”, the “correlation between dose and inhibition of ulcer surface area (in words)” value ([2]; FIG. 1) was “highly significant correlation between the dose and the inhibition of the surface area of the ulcer” and the ED50 ([2]; Rattus norvegicus, po, orally, calculated from the regression lines, read-out: DE 50 (inhibition of the surface area of the ulcer)) was 37 mg/kg. The “Surface area of the ulcer in % with respect to surface area of the stomach (x ± Sx)” value (“Surface area of the ulcer in %” below) ([2]; orally, 2 × 2.5 mg/kg, controls 0.80 ± 3.26) was 0.57 ± 2.10%, the “Surface area of the ulcer in %” value ([2]; orally, 2 × 10 mg/kg, controls 3.60 ± 3.33) was 2.13 ± 2.22% and the “Surface area of the ulcer in %” value ([2]; orally, 2 × 25 mg/kg, controls 0.80 ± 3.26) was 0.33 ± 1.59%. The “Surface area of the ulcer in %” value ([2]; orally, 2 × 50 mg/kg, controls 3.57 ± 3.59) was 1.30 ± 1.74%, the “Surface area of the ulcer in %” value ([2]; orally, 2 × 100 mg/kg, controls 3.60 ± 3.33) was 1.97 ± 1.44% and the “Surface area of the ulcer in %” value ([2]; orally, 2 × 200 mg/kg, controls 3.57 ± 3.59, p<0.02) was 0.27 ± 0.53%. The “action on smooth musculature” value [3] was “clear prolonged action on muscle on the different kinds of smooth musculature”, the “Rapidity ± E.S.” value ([4]; 1 hour before sacrifice) was 1.6 ± 0.2 and the “Deepness (mm ± E.S.)” value ([4]; 1 hour before sacrifice) was 29.1 ± 3.6 mm. The “Rapidity ± E.S.” value ([4]; 2 hours before sacrifice) was 3.3 ± 0.7, the “Deepness (mm ± E.S.)” value ([4]; 2 hours before sacrifice) was 67.3 ± 12.6 mm and the Cholesterolemia ([5]; controls 91.5 ± 6.6, alcohol 81.0 ± 4.6) was 56.3 ± 3.9. For the same compound, the Triglyceridemia ([5]; controls 97.8 ± 5.1, alcohol 169.0 ± 25.0) was 85.2 ± 13.5, the “Time of Quick (± E.S.)” value ([6]; controls 25.3 ± 0.2, p < 0.001) was 29.0 ± 0.4 minutes/10 and the “Time of Howel (± E.S.)” value ([6]; controls 84.5 ± 1.6, p < 0.001) was 98.8 ± 0.9 minutes/10. The “Time of Quick (Repetition) (± E.S.)” value ([6]; repetition, controls 25.8 ± 0.4, p < 0.001) was 29.3 ± 0.3 minutes/100, the “Time of Howel (Repetition) (± E.S.)” value ([6]; repetition, controls 95.0 ± 1.5, p < 0.001) was 118.8 ± 2.4 minutes/100 and the triglycerides ([7]; 25 mg/kg/die by mouth, Nath diet 134.9 ± 9.4, p<0.05 vs Nath diet) was 109.4 ± 6.9. The cholesterol ([7]; 25 mg/kg/die by mouth, Nath diet 333.3 ± 29.9) was 380.2 ± 77.8, the cholesterol ([7]; 25 mg/kg/die endoperitoneal, controls 72.6 ± 4.3, Nath diet 333.3 ± 29.9, p<0.001 vs Nath diet) was 168.3 ± 26.8 and the triglycerides ([7]; 25 mg/kg/die endoperitoneal, controls 96.9 ± 9.4, Nath diet 134.9 ± 9.4, p<0.05 vs Nath diet) was 91.9 ± 16.3.
